The target of assay [1] is DNA topoisomerase 2-beta (Homo sapiens) (UniProt Q02880). As to the kind of experiment: (§1) Maximal non-effective concentration against bacterial DNA gyrase.
A further assay deals with Nucleic Acid. Described as §1. Format: nucleic-acid assay.
Assay [2] concerns the target Matrix metalloproteinase-9 (Homo sapiens) (UniProt P14780). As to the kind of experiment: Inhibition of gelatinase B, matrix metalloprotease-9 (MMP-9) at 5000 uM.

Chain of DNA topoisomerase 2-beta (Homo sapiens) (Q02880 whole entry): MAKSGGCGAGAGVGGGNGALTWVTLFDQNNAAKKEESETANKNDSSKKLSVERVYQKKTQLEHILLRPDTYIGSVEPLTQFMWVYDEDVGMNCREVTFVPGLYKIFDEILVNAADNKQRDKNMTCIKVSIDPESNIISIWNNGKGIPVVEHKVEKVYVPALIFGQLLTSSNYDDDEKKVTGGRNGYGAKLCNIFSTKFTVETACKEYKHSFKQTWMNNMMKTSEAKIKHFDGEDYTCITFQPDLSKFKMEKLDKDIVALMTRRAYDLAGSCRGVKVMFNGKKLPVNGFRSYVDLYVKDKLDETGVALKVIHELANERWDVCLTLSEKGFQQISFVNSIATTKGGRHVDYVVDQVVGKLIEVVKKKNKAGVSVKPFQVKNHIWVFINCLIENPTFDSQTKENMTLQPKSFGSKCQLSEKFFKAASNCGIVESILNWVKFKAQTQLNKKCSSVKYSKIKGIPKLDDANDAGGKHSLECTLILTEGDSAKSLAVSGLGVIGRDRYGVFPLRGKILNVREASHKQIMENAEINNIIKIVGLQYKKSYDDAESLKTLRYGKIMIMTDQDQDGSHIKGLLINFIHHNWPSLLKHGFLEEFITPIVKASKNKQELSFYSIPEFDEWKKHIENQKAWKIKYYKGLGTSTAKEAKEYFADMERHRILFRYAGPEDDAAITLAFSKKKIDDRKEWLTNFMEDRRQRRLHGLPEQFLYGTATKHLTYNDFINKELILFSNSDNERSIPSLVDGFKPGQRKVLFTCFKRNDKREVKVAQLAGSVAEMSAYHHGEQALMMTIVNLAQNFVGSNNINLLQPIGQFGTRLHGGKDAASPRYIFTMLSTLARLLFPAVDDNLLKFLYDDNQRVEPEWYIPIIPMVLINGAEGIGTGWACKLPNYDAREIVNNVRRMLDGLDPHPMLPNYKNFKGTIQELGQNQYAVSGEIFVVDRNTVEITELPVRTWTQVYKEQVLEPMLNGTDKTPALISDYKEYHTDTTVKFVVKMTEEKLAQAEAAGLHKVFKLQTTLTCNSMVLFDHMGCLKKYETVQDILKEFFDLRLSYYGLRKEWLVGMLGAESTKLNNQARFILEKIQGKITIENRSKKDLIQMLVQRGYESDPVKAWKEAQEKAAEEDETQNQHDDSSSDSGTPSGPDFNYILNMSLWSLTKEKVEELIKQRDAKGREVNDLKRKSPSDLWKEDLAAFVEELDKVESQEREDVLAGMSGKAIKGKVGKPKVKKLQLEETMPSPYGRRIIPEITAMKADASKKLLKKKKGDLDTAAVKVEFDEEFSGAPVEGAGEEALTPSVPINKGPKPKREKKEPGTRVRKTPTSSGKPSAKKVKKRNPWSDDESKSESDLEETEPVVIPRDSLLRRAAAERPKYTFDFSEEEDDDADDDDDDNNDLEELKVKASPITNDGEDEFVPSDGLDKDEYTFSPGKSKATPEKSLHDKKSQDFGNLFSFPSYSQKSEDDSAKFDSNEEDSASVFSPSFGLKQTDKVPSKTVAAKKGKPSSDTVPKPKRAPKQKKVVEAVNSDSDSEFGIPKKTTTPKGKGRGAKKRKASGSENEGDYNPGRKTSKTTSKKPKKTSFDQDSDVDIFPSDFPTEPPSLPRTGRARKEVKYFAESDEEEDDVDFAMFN
Chain of Matrix metalloproteinase-9 (Homo sapiens) (P14780 whole entry): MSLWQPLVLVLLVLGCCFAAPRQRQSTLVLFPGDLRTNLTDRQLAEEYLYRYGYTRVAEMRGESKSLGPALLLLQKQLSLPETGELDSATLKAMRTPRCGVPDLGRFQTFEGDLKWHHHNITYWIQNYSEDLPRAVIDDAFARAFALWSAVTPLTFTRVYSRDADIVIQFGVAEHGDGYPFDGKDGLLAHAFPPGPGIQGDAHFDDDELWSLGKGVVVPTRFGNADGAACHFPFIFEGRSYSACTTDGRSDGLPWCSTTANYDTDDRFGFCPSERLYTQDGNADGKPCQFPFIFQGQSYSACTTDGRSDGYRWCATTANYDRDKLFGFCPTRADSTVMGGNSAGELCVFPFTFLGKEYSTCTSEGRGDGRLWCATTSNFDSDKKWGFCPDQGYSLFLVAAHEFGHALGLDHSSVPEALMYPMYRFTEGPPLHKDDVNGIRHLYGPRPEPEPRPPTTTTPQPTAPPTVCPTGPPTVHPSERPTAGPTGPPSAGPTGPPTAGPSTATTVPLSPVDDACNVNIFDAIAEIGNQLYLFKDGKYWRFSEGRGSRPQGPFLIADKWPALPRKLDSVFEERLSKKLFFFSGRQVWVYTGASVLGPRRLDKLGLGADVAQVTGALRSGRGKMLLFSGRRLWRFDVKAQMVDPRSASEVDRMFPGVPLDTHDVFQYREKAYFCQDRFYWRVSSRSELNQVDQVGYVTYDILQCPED

Take `Cc1cc(=O)oc2cc(SCc3n[nH]c4cccc(OCc5ccc(C(C)(C)C)cc5)c34)ccc12`: in assay [1], the MNEC amounted to 0.062 µM.

`Cc1cc(=O)oc2cc(SCc3n[nH]c4ccccc34)ccc12` showed an MNEC in the assay with Nucleic Acid of 25 µM.

As for `NCc1nc2ccccc2[nH]1`, the inhibition in assay [2] was found to be 65%.

Regarding `c1ccc(-c2[nH]nc3ccccc23)cc1`, the MNEC in the assay on Nucleic Acid was 41 µM.

Source of the values: ChEMBL document CHEMBL1148343, “Fragment-based drug discovery” (J Med Chem, 2004).
